Test results reported in ChEMBL document CHEMBL5137095, “N-Benzyl Benzamide Derivatives as Selective Sub-Nanomolar Butyrylcholinesterase Inhibitors for Possible Treatment in Advanced Alzheimer's Disease” (J Med Chem, 2022).

Assays:
[1] = Brain concentration in ICR mouse at 10 mg/kg, IG measured at 4 hrs by LC-MS analysis; format: ADME, organism-based; details: po, read-out: Ct
[2] = tested on: BV-2; assay: Cytotoxicity against mouse BV-2 cells assessed as reduction in cell viability at 20 uM by MTT assay; format: toxicity, cell-based; details: bv-2, 20 µM
[3] = tested on: PC-12; assay: Cytotoxicity against rat PC-12 cells assessed as reduction in cell viability at 10 uM by MTT assay; format: toxicity, cell-based; details: pc-12, 10 µM
[4] = tested on: SH-SY5Y; assay: Neuroprotective activity against amyloid beta (1 to 42)-induced cell damage in human SH-SY5Y cells assessed as cell survival rate at 25 uM pretreated for 2 hrs followed by amyloid beta (1 to 42) addition and measured after 24 hrs by MTT assay; format: functional; details: time 26 hrs
[5] = Plasma concentration in ICR mouse at 10 mg/kg, po measured at 1 hr by LC-MS analysis; format: ADME, organism-based
[6] = tested on: SH-SY5Y; assay: Cytotoxicity against human SH-SY5Y cells assessed as reduction in cell viability at 10 uM by MTT assay; format: toxicity, cell-based
[7] = Plasma concentration in ICR mouse at 10 mg/kg, IG measured at 2 hrs by LC-MS analysis; format: ADME, organism-based; details: po
[8] = Plasma concentration in ICR mouse at 10 mg/kg, IG measured at 6 hrs by LC-MS analysis; format: ADME, organism-based; details: po
[9] = Permeability of compound incubated for 18 hrs by PAMPA-BBB assay; format: ADME; details: read-out: permeability
[10] = target: T1, Cholinesterase (Homo sapiens, UniProt P06276); assay: Inhibition of human BChE assessed as inhibition constant
[11] = Brain concentration in ICR mouse at 10 mg/kg, IG measured at 0.5 hrs by LC-MS analysis; format: ADME, organism-based; details: po, read-out: Ct
[12] = Tmax in Sprague-Dawley rat at 10 mg/kg, iv measured after 48 hrs by LC-MS analysis; format: ADME, organism-based; details: in vivo
[13] = Oral bioavailability in Sprague-Dawley rat at 10 mg/kg measured after 48 hrs by LC-MS analysis; format: ADME, organism-based; details: in vivo
[14] = n-octanol-water partition coefficient, log P of the compound by HPLC analysis; format: physicochemical
[15] = Acute toxicity in ICR mouse assessed as increase in body weight at 1000 mg/kg, po measured after 14 days; format: organism-based; details: in vivo, 336 h, time 14 day
[16] = tested on: SH-SY5Y; assay: Neuroprotective activity against amyloid beta (1 to 42)-induced cell damage in human SH-SY5Y cells assessed as cell survival at 2 uM pretreated for 2 hrs followed by amyloid beta (1 to 42) addition and measured after 24 hrs by MTT assay; format: functional; details: time 26 hrs, read-out: Activity
[17] = tested on: SH-SY5Y; assay: Cytotoxicity against human SH-SY5Y cells assessed as reduction in cell viability at 20 uM by MTT assay; format: toxicity, cell-based
[18] = AUC (0 to infinitive) in Sprague-Dawley rat at 10 mg/kg, iv measured after 48 hrs by LC-MS analysis; format: ADME, organism-based; parameters: time 48 hrs, dose 10 mg/kg, route iv; details: in vivo
[19] = Acute toxicity in ICR mouse assessed as death at 1000 mg/kg, po measured after 4 hrs; format: organism-based; details: in vivo
[20] = Plasma concentration in ICR mouse at 10 mg/kg, IG measured at 4 hrs by LC-MS analysis; format: ADME, organism-based; details: po
[21] = Acute toxicity in ICR mouse assessed as effect on consumption of water and food at 1000 mg/kg, po measured after 14 days; format: organism-based; details: in vivo, 336 h, time 14 day
[22] = tested on: BV-2; assay: Cytotoxicity against mouse BV-2 cells assessed as reduction in cell viability at 10 uM by MTT assay; format: toxicity, cell-based; details: bv-2, 10 µM
[23] = Plasma concentration in ICR mouse at 10 mg/kg, po measured at 0.25 hrs by LC-MS analysis; format: ADME, organism-based
[24] = Brain concentration in ICR mouse at 10 mg/kg, IG measured at 2 hrs by LC-MS analysis; format: ADME, organism-based; details: po, read-out: Ct
[25] = Elimination half life in Sprague-Dawley rat at 10 mg/kg, iv measured after 48 hrs by LC-MS analysis; format: ADME, organism-based; details: in vivo, read-out: beta t1/2 (converted)
[26] = Tmax in Sprague-Dawley rat at 10 mg/kg, IG measured after 48 hrs by LC-MS analysis; format: ADME, organism-based; details: in vivo, po
[27] = Elimination half life in Sprague-Dawley rat at 10 mg/kg, IG measured after 48 hrs by LC-MS analysis; format: ADME, organism-based; details: in vivo, po, read-out: beta t1/2 (converted)
[28] = AUC (0 to infinitive) in Sprague-Dawley rat at 10 mg/kg, IG measured after 48 hrs by LC-MS analysis; format: ADME, organism-based; parameters: dose 10 mg/kg, time 48 hrs, route ig; details: in vivo, po
[29] = Brain concentration in ICR mouse at 10 mg/kg, IG measured at 6 hrs by LC-MS analysis; format: ADME, organism-based; details: po, read-out: Ct
[30] = Brain concentration in ICR mouse at 10 mg/kg, IG measured at 1 hr by LC-MS analysis; format: ADME, organism-based; details: po, read-out: Ct
[31] = Cmax in Sprague-Dawley rat at 10 mg/kg, iv measured after 48 hrs by LC-MS analysis; format: ADME, organism-based; parameters: dose 10 mg/kg, time 48 hrs, route iv; details: in vivo
[32] = Brain concentration in ICR mouse at 10 mg/kg, IG measured at 0.25 hrs by LC-MS analysis; format: ADME, organism-based; details: po, read-out: Ct
[33] = Plasma concentration in ICR mouse at 10 mg/kg, IG measured at 0.5 hrs by LC-MS analysis; format: ADME, organism-based; details: po
[34] = target: T1, Cholinesterase; assay: Inhibition of human BChE using acetylthiocholine iodide or butyrylthiocholine iodide as substrate preincubated for 5 mins followed by substrate addition by Ellman's method
[35] = tested on: HT-22; assay: Cytotoxicity against mouse HT-22 cells assessed as reduction in cell viability at 10 uM by MTT assay; format: toxicity, cell-based; details: ht-22, 10 µM
[36] = tested on: PC-12; assay: Neuroprotective activity against H2O2-induced cell damage in rat PC-12 cells assessed as survival rate at 5 to 10 uM pretreated for 2 hrs followed by H2O2 addition and measured after 24 hrs by MTT assay; format: functional; details: dose 5-10 µM, time 26 hrs
[37] = Cytotoxicity against mouse BV-2 cells assessed as cell survival rate at 10 uM by MTT assay; format: toxicity, cell-based; details: read-out: Activity
[38] = Cytotoxicity against mouse HT-22 cells assessed as cell survival rate at 10 uM by MTT assay; format: toxicity, cell-based; details: read-out: Activity
[39] = Microsomal stability in human liver microsomes assessed as half life measured after 120 mins; format: ADME, Microsome
[40] = Cytotoxicity against human SH-SY5Y cells assessed as cell survival rate at 10 uM by MTT assay; format: toxicity, cell-based; details: read-out: Activity
[41] = target: T1, Cholinesterase; assay: Binding affinity to human BChE assessed as dissociation constant by surface plasmon resonance assay
[42] = tested on: HT-22; assay: Cytotoxicity against mouse HT-22 cells assessed as reduction in cell viability at 20 uM by MTT assay; format: toxicity, cell-based; details: ht-22, 20 µM
[43] = Cmax in Sprague-Dawley rat at 10 mg/kg, IG measured after 48 hrs by LC-MS analysis; format: ADME, organism-based; parameters: time 48 hrs, dose 10 mg/kg, route ig; details: in vivo, po
[44] = tested on: PC-12; assay: Cytotoxicity against rat PC-12 cells assessed as reduction in cell viability at 20 uM by MTT assay; format: toxicity, cell-based; details: pc-12, 20 µM
[45] = Cytotoxicity against rat PC-12 cells assessed as cell survival rate at 10 uM by MTT assay; format: toxicity, cell-based; details: read-out: Activity

T1 sequence (P06276 whole entry): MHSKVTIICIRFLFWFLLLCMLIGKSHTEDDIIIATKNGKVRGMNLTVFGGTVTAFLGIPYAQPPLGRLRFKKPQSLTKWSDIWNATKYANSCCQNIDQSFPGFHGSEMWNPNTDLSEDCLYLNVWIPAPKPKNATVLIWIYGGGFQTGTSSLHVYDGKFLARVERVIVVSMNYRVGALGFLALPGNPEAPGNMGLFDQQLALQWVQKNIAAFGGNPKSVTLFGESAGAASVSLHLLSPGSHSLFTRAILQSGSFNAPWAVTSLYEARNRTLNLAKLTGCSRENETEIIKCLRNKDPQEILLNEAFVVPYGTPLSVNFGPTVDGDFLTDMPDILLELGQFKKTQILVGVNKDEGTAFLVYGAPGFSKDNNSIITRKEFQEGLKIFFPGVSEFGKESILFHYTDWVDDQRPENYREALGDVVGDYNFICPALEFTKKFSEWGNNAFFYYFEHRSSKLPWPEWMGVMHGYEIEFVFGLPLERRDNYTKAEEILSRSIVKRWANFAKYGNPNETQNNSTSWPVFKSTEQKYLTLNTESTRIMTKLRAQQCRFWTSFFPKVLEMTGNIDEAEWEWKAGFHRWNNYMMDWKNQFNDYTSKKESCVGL

CCN(CC)Cc1ccccc1CNC(=O)c1cccc(NC(=O)c2ccc(F)cc2)c1
concentration at 4 h [1]: 16.4 ng/g
Activity [2]: Non-Toxic
Activity [3]: Non-Toxic
Activity [4]: 64.12%
concentration at 1 h [5]: 20.9 ng/mL
Activity [6]: Non-Toxic
concentration at 2 h [7]: 18.4 ng/mL
concentration at 6 h [8]: 2.95 ng/mL
Papp at 18 h [9]: 10.2 ×10⁻⁶ cm/s
Ki [10]: 0.61 nM
concentration at 0.5 h [11]: 26.8 ng/g
Tmax [12]: 6 min
bioavailability [13]: 21.7%
logP [14]: 1.7
Activity [15]: Non-Toxic
viability at 2 µM [16]: 68%
Activity [17]: Non-Toxic
AUC(0-inf) [18]: 2170 ng·h/mL
Activity [19]: Non-Toxic
concentration at 4 h [20]: 17.4 ng/mL
Activity [21]: Non-Toxic
Activity [22]: Non-Toxic
concentration at 0.25 h [23]: 25.7 ng/mL
concentration at 2 h [24]: 17.7 ng/g
half-life [25]: 1030 min
Tmax [26]: 37.8 min
half-life [27]: 1680 min
AUC(0-inf) [28]: 497 ng·h/mL
concentration at 6 h [29]: 15.3 ng/g
concentration at 1 h [30]: 37.5 ng/g
Cmax [31]: 1640 ng/mL
concentration at 0.25 h [32]: 25.4 ng/g
concentration at 0.5 h [33]: 30.2 ng/mL
IC50 [34]: 0.08 nM
Activity [35]: Non-Toxic
Activity [36]: 61.7%
viability at 10 µM [37]: > 70%
viability at 10 µM [38]: > 70%
half-life [39]: 93.3 min
viability at 10 µM [40]: > 70%
Kd [41]: 0.37 nM
Activity [42]: Non-Toxic
Cmax [43]: 36.4 ng/mL
Activity [44]: Non-Toxic
viability at 10 µM [45]: > 70%
